Measurements as given in patent US5538985A, “Pyrrolidinone derivatives” (Mitsui Toatsu Chemicals, Inc., priority 1994, dated 1996).

Biological target: T1, α1 receptor (Rattus norvegicus, UniProt Q9R0C9)
T1 construct: whole brain of a rat except for the cerebellum and medulla; from tissue; host or cells: rat whole brain except cerebellum and medulla, homogenate
Test: radioreceptor assay (α1 [sic] receptor) with 3H-(+)pentazocine in rat whole brain homogenate (Pharmacological Test 1)
Assay type: binding
Conditions: 3H-(+)pentazocine 5 nM, rat whole brain except cerebellum and medulla, 2 hours
Description: By modifying the Vilner et al. method [B. J. Vilner and W. D. Bowen: Mechanisms for Neuromodulation and neuroprotection? in Multiple Sigma and PCP Receptor Ligands, pp341 (1992) NPP Books], a radioreceptor assay was conducted with respect to the α1 receptor. A homogenate (10 mg/ml) of the whole brain of a rat except for the cerebellum and medulla was incubated together with each test drug and ^3 H-ligand [5 nM of ^3 H-(+)pentazocine (NEN)] for 2 hours. Brain tissue was filtered under suction through a glass fiber filter paper ("GF/B", trade name; manufactured by Whatman) using a cell harvester ("LL-12", trade name; manufactured by Brandel) and was washed twice, each with 3 ml of a buffer solution. The glass fiber filter paper was placed in a vial, to which 3.5 ml of a scintillator ("ACSII" trade name; product of Amersham International plc) were added. After being left for 10 hours, the amount of ^3 H-ligand bound to the receptor was measured by a liquid scintillation counter. Incidentally, (+)-pentazocine (10 μM) was used for the measurement of a blank.
Binding rates of ^3 H-ligand to the receptor at individual concentrations of each test drug were plotted to draw a graph by assuming that the binding rate without addition of the test drug was 100% and that when the blank substance was added was 0%. A concentration of the test drug, which would give a binding rate of 50%, was then determined and recorded as an IC50 value. From the IC50 value, the Ki value was determined in accordance with the following formula: [formula] KD represents the dissociation constant between ^3 H-ligand and the receptor, and was obtained by the Scatchard plotting of the bonding to the receptor when the concentration of ^3 H-ligand was varied.

T1 sequence (Q9R0C9 whole entry): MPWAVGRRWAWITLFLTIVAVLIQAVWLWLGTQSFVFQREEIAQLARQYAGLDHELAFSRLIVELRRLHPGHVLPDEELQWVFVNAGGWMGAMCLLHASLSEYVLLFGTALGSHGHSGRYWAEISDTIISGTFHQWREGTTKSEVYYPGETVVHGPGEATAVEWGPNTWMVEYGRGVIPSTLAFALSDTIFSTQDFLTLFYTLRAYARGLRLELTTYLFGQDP

Question: How did the Ki turn out when `O=C1C(CN2CCCCCC2)CCN1c1ccc(Cl)cc1` (single isomer, unassigned; (-)) [Example 93 (-) form, (-) 1-(4-Chlorophenyl)-3-(hexahydro-1H-azepin-1-ylmethyl)-2-pyrrolidinone] was run?
Answer: Its Ki is 1.5 nM.

Question: For `O=C1C(CN2CCCCCC2)CCN1c1ccc(Cl)cc1` (stereo not shown) [Example 1], which Ki is on record?
Answer: Its Ki is 2.7 nM.

Question: With `O=C1C(CN2CCCCC2)CCN1c1ccc(Cl)c(Cl)c1` (stereo not shown) [Example 2] as the compound, how does the Ki read?
Answer: The Ki was 2.8 nM.

Question: How did the Ki turn out when `O=C1C(CN2CCCCCC2)CCN1c1cccc(C(F)(F)F)c1` (stereo not shown) [Example 3] was run?
Answer: Its Ki is 3.2 nM.

Question: How did the Ki turn out when `CC1CCN(CC2CCN(c3cccc(C(F)(F)F)c3)C2=O)CC1` (stereo not shown) [Example 11] was run?
Answer: The Ki was 2.1 nM.

Question: For `O=C1C(CN2CCCCC2)CCN1c1cccc(Cl)c1` (stereo not shown) [Example 12], which Ki is on record?
Answer: Its Ki is 4.7 nM.

Question: How did the Ki turn out when `O=C1C(CN2CCCCC2)CCN1c1cccc(Br)c1` (stereo not shown) [Example 13] was run?
Answer: Its Ki is 1.3 nM.

Question: Which Ki does the source give for `O=C1C(CN2CCCCC2)CCN1c1cccc(C(F)(F)F)c1` (stereo not shown) [Example 20] here?
Answer: The Ki was 3.5 nM.

Question: `CC1CCN(CC2CCN(c3ccc(C(C)(C)C)cc3)C2=O)CC1` (stereo not shown) [Example 27] was tested. Which Ki did it give?
Answer: The Ki was 2.3 nM.

Question: For `CCC1CCN(CC2CCN(c3ccc(Cl)cc3)C2=O)CC1` (stereo not shown) [Example 29], which Ki is on record?
Answer: Its Ki is 3.8 nM.

Question: With `O=C1C(CN2CCCCCCC2)CCN1c1ccc(Cl)c(Cl)c1` (stereo not shown) [Example 31] as the compound, how does the Ki read?
Answer: Its Ki is 1.2 nM.

Question: Which Ki does the source give for `CC1CCN(CC2CCN(c3ccc(Cl)c(Cl)c3)C2=O)CC1` (stereo not shown) [Example 33] here?
Answer: The Ki was 7 nM.

Question: Which Ki does the source give for `COc1cccc(N2CCC(CN3CCC(C)CC3)C2=O)c1` (stereo not shown) [Example 43] here?
Answer: Its Ki is 3.6 nM.

Question: With `COc1cccc(N2CCC(CN3CCCCCC3)C2=O)c1` (stereo not shown) [Example 44] as the compound, how does the Ki read?
Answer: The Ki was 5.9 nM.

Question: Which Ki does the source give for `CC1CCN(CC2(C)CCN(c3ccc(Cl)cc3)C2=O)CC1` (stereo not shown) [Example 49] here?
Answer: Its Ki is 3 nM.

Question: With `O=C1C(CN2CCCCC2)CCN1c1ccc(C(F)(F)F)cc1` (stereo not shown) [Example 74] as the compound, how does the Ki read?
Answer: The Ki was 4.4 nM.

Question: With `COC1CCN(CC2CCN(c3ccc(Cl)cc3)C2=O)CC1` (stereo not shown) [Example 75] as the compound, how does the Ki read?
Answer: Its Ki is 8 nM.

Question: With `O=C1C(CN2CCCCCC2)CCN1c1ccc(Cl)cc1` (stereo not shown) [Example 82] as the compound, how does the Ki read?
Answer: Its Ki is 2 nM.

Tested on: mAMP-induced hyperkinesia
Test: inhibition of methamphetamine (mAMP)-induced hyperkinesia in mice (Pharmacological Test 2)
Assay type: in vivo, mice (ddy male)
Conditions: Mus musculus, sc, 0.5 h; test drug 10 mg/kg peritoneally; methamphetamine 1.5 mg/kg subcutaneously; motion measured for 30 minutes; read-out: Inhibition rate of mAMP-induced hyperkinesia (%)
Description: Using mice, antipsychotic activities were investigated in terms of hyperkinesia induced by methamphetamine. For the experiment, ten 5 weeks-old ddy male mice (NIHON S.L.C K.K.) were used per each group. Immediately after each mouse was peritoneally administered at 10 mg/kg with the corresponding test drug, the mouse was placed in a photocell cage for measurement. The amount of motion was measured for 30 minutes (the first measurement: this was recorded as the action of the test drug for the active movement). Thereafter, the mouse was once taken out of the cage and subcutaneously administered at 1.5 mg/kg with methamphetamine. The mouse was then returned to the same cage and the amount of motion was measured for 30 minutes. An average amount of motion of each group was determined based on the amounts of motion after the administration of methamphetamine (mAMP) as obtained by the second measurement, and the inhibition rate (%) of hyperkinesia was calculated in accordance with the following formula: [formula]
The group to which the test drug was administered: the test drug+methamphetamine
Control group: vehicle+methamphetamine
Normal group: vehicle+saline

Question: Which inhibition in vivo at 10 mg/kg does the source give for `O=C1C(CN2CCCCCC2)CCN1c1ccc(Cl)cc1` (stereo not shown) [Example 1] here?
Answer: The inhibition in vivo at 10 mg/kg was 55%.

Question: For `O=C1C(CN2CCCCC2)CCN1c1ccc(Cl)cc1` (stereo not shown) [Example 23], which inhibition in vivo at 10 mg/kg is on record?
Answer: The inhibition in vivo at 10 mg/kg was 54%.

Question: `CC1CCN(CC2CCN(c3ccc(Cl)cc3)C2=O)CC1` (stereo not shown) [Example 26] was tested. Which inhibition in vivo at 10 mg/kg did it give?
Answer: The inhibition in vivo at 10 mg/kg was 56%.

Question: With `CC1CCN(CC2CCN(c3ccc(Cl)c(Cl)c3)C2=O)CC1` (stereo not shown) [Example 33] as the compound, how does the inhibition in vivo at 10 mg/kg read?
Answer: Its inhibition in vivo at 10 mg/kg is 53%.

Question: With `O=C1C(CN2CCCC2)CCN1c1ccc(Cl)cc1` (stereo not shown) [Example 36] as the compound, how does the inhibition in vivo at 10 mg/kg read?
Answer: Its inhibition in vivo at 10 mg/kg is 56%.

Question: For `O=C1CC(CN2CCCCC2)CN1c1ccc(F)cc1` (stereo not shown) [Example 37], which inhibition in vivo at 10 mg/kg is on record?
Answer: The inhibition in vivo at 10 mg/kg was 62%.

Question: Which inhibition in vivo at 10 mg/kg does the source give for `CCc1ccc(N2CC(CN3CCCCC3)CC2=O)cc1` (stereo not shown) [Example 39] here?
Answer: The inhibition in vivo at 10 mg/kg was 54%.

Question: How did the inhibition in vivo at 10 mg/kg turn out when `O=C1C(CN2CCC(O)CC2)CCN1c1ccc(Cl)cc1` (stereo not shown) [Example 40] was run?
Answer: The inhibition in vivo at 10 mg/kg was 73%.

Question: `COc1ccc(N2CCC(CN3CCC(C)CC3)C2=O)cc1` (stereo not shown) [Example 41] was tested. Which inhibition in vivo at 10 mg/kg did it give?
Answer: Its inhibition in vivo at 10 mg/kg is 53%.

Question: For `CC(=O)C1CCN(CC2CCN(c3ccc(Cl)cc3)C2=O)CC1` (stereo not shown) [Example 45], which inhibition in vivo at 10 mg/kg is on record?
Answer: The inhibition in vivo at 10 mg/kg was 51%.

Question: Which inhibition in vivo at 10 mg/kg does the source give for `O=C1C(CN2CCCCCC2)CCN1c1ccc(F)cc1` (stereo not shown) [Example 53] here?
Answer: Its inhibition in vivo at 10 mg/kg is 62%.

Question: For `CC1CC(C)CN(CC2CCN(c3ccc(Cl)cc3)C2=O)C1` (stereo not shown) [Example 56], which inhibition in vivo at 10 mg/kg is on record?
Answer: The inhibition in vivo at 10 mg/kg was 76%.

Question: Which inhibition in vivo at 10 mg/kg does the source give for `O=C1C(CN2CCCCCC2)CCN1c1ccc(C2CCCCC2)cc1` (stereo not shown) [Example 64] here?
Answer: The inhibition in vivo at 10 mg/kg was 57%.

Question: With `O=C1C(CN2CCCCCC2)CCN1c1ccc(-c2ccccc2)cc1` (stereo not shown) [Example 70] as the compound, how does the inhibition in vivo at 10 mg/kg read?
Answer: Its inhibition in vivo at 10 mg/kg is 66%.

Question: For `COC1CCN(CC2CCN(c3ccc(Cl)cc3)C2=O)CC1` (stereo not shown) [Example 75], which inhibition in vivo at 10 mg/kg is on record?
Answer: Its inhibition in vivo at 10 mg/kg is 66%.

Question: Which inhibition in vivo at 10 mg/kg does the source give for `CC1CCN(CC2CC(=O)N(c3ccc(Cl)cc3)C2)CC1` (stereo not shown) [Example 81] here?
Answer: Its inhibition in vivo at 10 mg/kg is 53%.
